Source: patent publication US9422573B2, “Methods and means for generating microbial disease resistant plants” (VIB VZW, priority 2011, dated 2016)
Like-named read-outs stand apart in the source and are kept apart here.

Tests used:
A. brassicicola = format: cell-based, Alternaria brassicicola; conditions: for 50% growth inhibitory concentration (IC50): 48 h
Text: (§1) Next, we assessed the potential antifungal activity of At25 (ARACIN1) and At20 (ARACIN2) by an in vitro antifungal bioassay. Both propeptide and mature forms of At25 and At20 were produced by chemical synthesis (see Materials and Methods) and tested against A. brassicicola, B. cinerea B05-10 and B. cinerea Korea by means of a microtiter broth dilution assay (FIG. 9).
(§2) 11. Antifungal Activity Assay
(§3) Synthetic proAt25 peptide, mature At25 peptide, proat20 and mature At20 peptides were purchased from genscript (on the World Wide web at genscript.com). Stock solutions of 2×10^7 spores/ml of Botrytis cinerea B05-10, Botrytis cinerea Korea, Fusarium oxysporum and Alternaria brassicicola were diluted in ½ PDB (12 g/l Potato Dextrose Broth in water) to a final concentration of 2×10^4 spores/ml. After adding 196 μl aliquots of these spore dilutions to 4 μl of 2-fold dilution series of At25 in DMSO (starting from a 100 μg/ml stock solution) in microtiter plates, the plates were incubated on 23° C. for 48 h. DMSO was used as a negative control. Growth of the fungi was evaluated both microscopically and by measuring the OD600. Each fungus was tested in duplicate in the microtiter plates. Additionally, for Alternaria brassicicola this antifungal assay was repeated twice. For each assay, the average OD600 of each dilution and the DMSO control were compared using a t-test.

B. cinerea B05-10 = format: cell-based, Botrytis cinerea
Text: as §1, §2, §3

B. cinerea Korea = format: cell-based, Botrytis cinerea; conditions: for growth inhibition: Korea
Text: as §1, §2, §3

## H-GSCGAPISKYDFQVLAKRPPPCRRPRLENTEDVTHTTRP-OH (cysteine pairing not given here) [mature At20]
A. brassicicola
  50% growth inhibitory concentration (IC50): 1.55 ± 0.11 µg/mL
A. brassicicola; A. brassicicola, mature At20 versus proAt20
  reduction of IC50 value compared with the propeptide (proAt20): 86%
B. cinerea B05-10; B. cinerea B05-10
  antifungal activity in comparison with proAt20 (in words): remarkably increased
B. cinerea Korea; B. cinerea Korea
  antifungal activity in comparison with proAt20 (in words): remarkably increased

## H-GSCGASIAEFNSSQILAKRAPPCRRPRLQNSEDVTHTTLP-OH (cysteine pairing not given here) [mature At25]
A. brassicicola
  50% growth inhibitory concentration (IC50): 5.46 ± 0.57 µg/mL
A. brassicicola; A. brassicicola
  concentration from which growth inhibition / statistically significant antifungal effect starts: 1 µg/mL
B. cinerea B05-10; B05-10, 10 μg mL^−1
  growth inhibition: 95.7%
B. cinerea B05-10; B05-10, 48 h
  50% growth inhibitory concentration (IC50): 3.05 ± 0.25 µg/mL
B. cinerea Korea; B. cinerea Korea, 48 h, 23° C., OD600
  50% growth inhibitory concentration (IC50): 2.03 ± 0.44 µg
B. cinerea Korea; 10 μg mL^−1
  growth inhibition: 94%

## NH2-RRSDTGPDISTPPSGSCGASIAE FNSSQILAKRAPPCRRPRLQNSEDVTHTTLP-COOH (H-RRSDTGPDISTPPSGSCGASIAEFNSSQILAKRAPPCRRPRLQNSEDVTHTTLP-OH; cysteine pairing not given here; listed as Arabidopsis thaliana) [proAt25]
A. brassicicola; A. brassicicola, data not shown
  inhibitory activity (in words): no statistically significant inhibitory activities
B. cinerea B05-10; B. cinerea B05-10, data not shown
  inhibitory activity (in words): no statistically significant inhibitory activities
B. cinerea Korea; B. cinerea Korea, data not shown
  inhibitory activity (in words): no statistically significant inhibitory activities

## NH2-SIPDDDMGPAIYTPPSGSCGA PISKYDFQVLAKRPPPCRRPRLENTEDVTHTTRP-COOH [proAt20]
A. brassicicola; 5 μg mL^−1
  growth inhibition: 36.7%
A. brassicicola
  50% growth inhibitory concentration (IC50): 11.32 ± 1.28 µg/mL
A. brassicicola; A. brassicicola
  concentration from which growth inhibition / statistically significant antifungal effect starts: 5 µg/mL
B. cinerea B05-10; B05-10, 20 μg mL^−1
  growth inhibition: 62%
B. cinerea B05-10; B. cinerea B05-10
  concentration from which statistically significant antifungal effect starts: 20 µg/mL
B. cinerea Korea; B. cinerea Korea
  concentration from which statistically significant antifungal effect starts: 20 µg/mL
B. cinerea Korea; 20 μg mL^−1
  growth inhibition: 64.8%
